Experimental data: US7425635B2, “Prodrugs and conjugates of thiol- and selenol-containing compounds and methods of use thereof” (University of Utah Research Foundation, priority 1997, dated 2008)

Legend:
Ugt1a6 = test: Northern blot of liver Ugt1a6 mRNA after ip dosing; assay type: in vivo, mice; settings: mean ± SEM
Procedure: (§1) Linking efficacy to biochemical parameters and a mechanism was limited in the initial study by only two parameters, [Se] and GPx activity. The in-vivo effects of selenazolidine compounds were then evaluated using, in addition to GPx, glutathione S-transferases (GSTs), quinone oxidoreductases (NQORs), UDP-glucuronosyltransferases (UGTs), and microsomal epoxide hydrolase (mEH). To investigate transcriptional changes of these classes of enzymes, it was necessary to develop a battery of cDNA probes for use in Northern blot analysis of RNA extracted from treated animals (Table 2).
(§2) Whether the selenaproline compounds had the ability to up-regulate the transcription of Phase II and/or other “protective” enzymes was first evaluated following a single dose of each (Table 3). […] The experiment was repeated but with a 7-day treatment regimen (Table 4), the time period for which the compounds were given in the diet before NNK administration in the tumor experiment reported in Table 1. […] With multiple doses, SCA induced Ugt1a9, an mRNA that was not changed with a single dose. […] The elevation in the Gst-mu transcript was unique to multiple OSCA treatment. The elevation of the GST-alpha mRNA was also seen with SCA treatment. Microsomal epoxide hydrolase mRNA was robustly elevated by multiple doses of all three selenaproline compounds, an effect not anticipated from the single dose experiment where not even minor changes were apparent.

Ugt1a1 = test: Northern blot of liver Ugt1a1 mRNA after ip dosing; assay type: in vivo, mice; settings: mean ± SEM
Procedure: as §1, §2

Ugt1a9 = test: Northern blot of liver Ugt1a9 mRNA after ip dosing; assay type: in vivo, mice; settings: mean ± SEM
Procedure: as §1, §2

mEH = test: Northern blot of liver mEH mRNA after ip dosing; assay type: in vivo, mice; settings: mean ± SEM
Procedure: as §1, §2

[1] = sALT (hepatotoxicity) after 7 daily ip doses; assay type: in vivo; set-up: unit not given here; settings: 7 daily doses ip, 1.25 mg Se/kg, with corn oil; untreated mice 37.5 ± 2.9
Description: (§3) Many of the mRNA changes seen with a single dose were not sustained with multiple dosing. Changes in Ugt transcripts after multiple dosing were noticeably absent. Unique to BSCA among the four new compounds investigated was its ability to induce Gst-alpha, Gst-mu and GPx mRNAs. For the Gst-alpha transcripts, which appeared elevated by corn oil, the BSCA increase was much greater than the vehicle alone (8-fold versus 2-fold) and was statistically significant (p<0.05). BSCA shared with PhOHSCA the ability to elevate mEH mRNA.

Gst-alpha = test: Northern blot of liver Gst-alpha mRNA after ip dosing; assay type: in vivo, mice; settings: mean ± SEM
Procedure: as §1, §2

GPx [2] = test: Northern blot of liver GPx mRNA after ip dosing; assay type: in vivo, mice; settings: mean ± SEM
Procedure: as §1, §2

Gst-mu = test: Northern blot of liver Gst-mu mRNA after ip dosing; assay type: in vivo, mice; settings: mean ± SEM
Procedure: as §1, §2

[3] = system: 'protective' enzyme mRNAs; test: Northern blot of 'protective' enzyme mRNAs (all probes) after ip dosing; assay type: in vivo, mice; settings: 7 daily doses ip, with corn oil
Procedure: as §1, §3

NNK lung tumor = NNK lung tumor four-month feeding study; assay type: in vivo; settings: mice, diet 15 ppm Se from 1 week prior to NNK (10 umol, ip), sacrificed after 16 weeks
Procedure: (§4) Three novel selenazolidines, 2-methyl-, 2-oxo- and 2-unsubstituted (i.e., selenaproline) selenazolidine-4[R]-carboxylic acid (MSCA, OSCA, and SCA respectively) that had been synthesized as prodrugs of selenocysteine were evaluated for their potential to act as cancer chemopreventive agents. [Se] and GPx activity were evaluated.
(§5) Where indicated, mice (16 g) were given diets fortified with SCA, MSCA or OSCA (15 ppm Se) for 1 week prior to NNK (10 umol, ip). Two other groups received the unmodified AIN-76A diet, with and without NNK administration. All groups were maintained on their pretreatment diet until the animals were sacrificed after 16 weeks. Liver GPx activity is expressed as μmol NADPH oxidized [in regenerating GSH]/min/mg 10,000 g×20 min supernatant protein; RBC activity as μmol/min/mg RBC lysate hemoglobin.

GPx [4] = test: Hepatic and RBC (tButylOOH) GPx activity in four-month feeding study; assay type: in vivo; settings: mice, diet 15 ppm Se, NNK; for Hepatic (tButylOOH) GPx: liver
Procedure: as §4, §5

[5] = Body weight gain and liver weight in four-month feeding study; assay type: in vivo; settings: mice, diet 15 ppm Se, NNK
Procedure: as §5

GPx [6] = test: Hepatic cytosolic GPx (H202) activity after 7 daily ip doses; assay type: in vivo, mice; settings: 7 daily doses ip, hepatic cytosol; naive 894 ± 36
GST = test: Hepatic cytosolic GST (CDNB) activity after 7 daily ip doses; assay type: in vivo, mice; settings: 7 daily doses ip, hepatic cytosol; naive 5248 ± 503
[7] = Stability in aqueous solution; assay type: physicochemical; settings: compared with MSCA; previous studies
Description: Accordingly, additional compounds were synthesized with a range of partition coefficients (Table 6) and evaluated their ability to alter gene transcription following single (Table 7) and multiple (Table 8) doses. The new 2-(R,S)-substituted-4(R)-carboxylic acid derivatives involving 2-butyl, 2-cyclohexyl, 2-phenyl and 2-(2-hydroxyphenyl) were synthesized utilizing the reaction of selenocysteine and the appropriate carboxaldehyde. They were purified by crystallization from ethanol/acetonitrile mixtures and their molecular structures were verified by spectral methods of analysis (′HNMR, ^13CNMR, ESIMs and HRMS).

[8] = 7 daily doses ip, 1.25 mg Se/kg, with corn oil, liver RNA 24 hours after the last dose
[9] = 1 dose ip, 1.25 mg Se/kg in corn oil, liver RNA 24 hours after dosing
[10] = 1 dose ip, 1.25 mg Se/kg, liver RNA 24 hours after dosing
[11] = 7 daily doses ip, 1.25 mg Se/kg, liver RNA 24 hours after the last dose

Structure (SMILES)	Ugt1a6 mRNA (Ugt1a6; [8]) [fold change from naive]	Ugt1a1 mRNA (Ugt1a1; [8]) [fold change from naive]	Ugt1a9 mRNA (Ugt1a9; [8]) [fold change from naive]	mEH mRNA (mEH; [9]) [fold change from naive]	sALT [1]	Gst-alpha mRNA (Gst-alpha; [9]) [fold change from naive]	GPx mRNA (GPx [2]; [9]) [fold change from naive]	Gst-mu mRNA (Gst-mu; [9]) [fold change from naive]	Ugt1a6 mRNA (Ugt1a6; [10]) [fold change from naive]	Ugt1a6 mRNA (Ugt1a6; [11]) [fold change from naive]	Ugt1a1 mRNA (Ugt1a1; [10]) [fold change from naive]	Ugt1a1 mRNA (Ugt1a1; [11]) [fold change from naive]	Ugt1a9 mRNA (Ugt1a9; [10]) [fold change from naive]	NNK Tumors (NNK lung tumor)	mEH mRNA (mEH; [10]) [fold change from naive]	mEH mRNA (mEH; [11]) [fold change from naive]	RBC (tButylOOH) GPx (GPx [4])	Hepatic (tButylOOH) GPx (GPx [4])	Gst-alpha mRNA (Gst-alpha; [10]) [fold change from naive]	Body wt gain (%) [5] [%]	other results
O=C(O)C1C[Se]C(C2CCCCC2)N1 (mixture of isomers) [ChSCA, 2-cyclohexyl-SCA]	1.22 ± 0.17	1.20 ± 0.17	1.16 ± 0.13	1.34 ± 0.41	40.0 ± 1.7	1.73 ± 0.20	1.20 ± 0.15	1.20 ± 0.15													Ugt1a9 mRNA (Ugt1a9; [9]): 3.04 ± 0.55 fold change from naive; Ugt1a9 mRNA (Ugt1a9; 1 dose ip, 1.25 mg Se/kg in corn oil, liver RNA 24 hours after dosing, listed as CnSCA): statistically elevated; mEH mRNA (mEH; [8]): 1.31 ± 0.19 fold change from naive; Gst-alpha mRNA (Gst-alpha; [8]): 1.99 ± 0.77 fold change from naive; GPx mRNA (GPx [2]; [8]): 2.26 ± 0.66 fold change from naive; Gst-mu mRNA (Gst-mu; [8]): 1.32 ± 0.21 fold change from naive; Induction of 'protective' enzyme mRNAs (any) [3]: failed to induce any mRNAs
CC1N[C@H](C(=O)O)C[Se]1 (mixture of isomers) [MSCA, 2(R,S)-Methylselenazolidine-4(R)-carboxylic acid]									1.21 ± 0.28	1.02 ± 0.15	1.07 ± 0.11	1.15 ± 0.09	1.47 ± 0.18	8.3 ± 0.9	1.06 ± 0.12	3.35 ± 1.21	220 ± 32 μmol/min/mg RBC lysate hemoglobin	564 ± 46 μmol NADPH oxidized/min/mg 10,	1.00 ± 0.19	49.3	Ugt1a9 mRNA (Ugt1a9; [11]): 1.22 ± 0.29 fold change from naive; Gst-alpha mRNA (Gst-alpha; [11]): 1.18 ± 0.33 fold change from naive; Liver weight [5]: 1.17 ± 0.02 g; GPx (1.5 kb) mRNA (GPx [2]; [10]): 1.65 ± 0.27 fold change from naive; GPx mRNA (GPx [2]; [11]): 1.43 ± 0.35 fold change from naive; Gst-mu mRNA (Gst-mu; [10]): 1.07 ± 0.57 fold change from naive; Gst-mu mRNA (Gst-mu; [11]): 1.65 ± 0.18 fold change from naive; GPx (H202) activity (GPx [6]): 944 ± 32 nmol/mg cytosol (100,000 g supernatant) protein/min; GST (CDNB) activity (GST): 6948 ± 502 nmol/mg cytosol (100,000 g supernatant) protein/min
O=C(O)C1C[Se]CN1 (stereo not drawn) [SCA, selenazolidine-4-carboxylic acid]									1.01 ± 0.29	1.01 ± 0.07	1.03 ± 0.18	2.25 ± 0.25	1.35 ± 0.50	6.7 ± 0.8	1.36 ± 0.40	3.25 ± 1.80	253 ± 33 μmol/min/mg RBC lysate hemoglobin	409 ± 46 μmol NADPH oxidized/min/mg 10,	1.15 ± 0.28	51.1	Liver weight [5]: 1.18 ± 0.02 g; GPx (1.5 kb) mRNA (GPx [2]; [10]): 1.12 ± 0.04 fold change from naive; GPx mRNA (GPx [2]; [11]): 1.55 ± 0.76 fold change from naive; Gst-mu mRNA (Gst-mu; [10]): 1.28 ± 0.09 fold change from naive; Gst-mu mRNA (Gst-mu; [11]): 0.58 ± 0.11 fold change from naive; GPx (H202) activity (GPx [6]): 862 ± 81 nmol/mg cytosol (100,000 g supernatant) protein/min; GST (CDNB) activity (GST): 6576 ± 595 nmol/mg cytosol (100,000 g supernatant) protein/min
CCCCC1NC(C(=O)O)C[Se]1 (stereo not drawn) [BSCA, 2-n-butyl-SCA]	1.84 ± 0.54	1.21 ± 0.26	1.69 ± 0.35	0.69 ± 0.19	37.1 ± 2.7	1.39 ± 0.05	1.58 ± 0.46	1.58 ± 0.46													Stability in aqueous solution [7]: much more stable in aqueous solution than MSCA; Ugt1a6 mRNA (Ugt1a6; [9]): 1.95 ± 0.21 fold change from naive; Ugt1a1 mRNA (Ugt1a1; [9]): 0.83 ± 0.28 fold change from naive
